Patent publication US20230250096A1, “SUBSTITUTED PHENYL-1H-PYRROLO[2,3-c] PYRIDINE DERIVATIVES” (Janssen Pharmaceutica NV, priority 2021, published 2023)
Read-outs that look alike come from different tables or passages of the source.

Assays:
Assay type in all cases: cell-based, human
MEIS1 mRNA expression = MEIS1 mRNA expression assay (Quantigene Singleplex) in MOLM14 cells; settings: 48 hours incubation
Procedure, shortened: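 Read-out: MEIS1 transcript counts, background-subtracted and divided by RPL28, expressed as fold change over DMSO-treated cells, then dose-response modelled for IC50. MOLM14 cells (3,750/well) received graded compound for 48 h before lysis and QuantiGene hybridization at 55 °C.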

KO-52 cells = assay: Proliferation assay (spheroid confluence, 8 days), KO-52 control cell line; settings: read-out: spheroid assay_KO-52 IC50
Procedure, shortened: (§1)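 Absolute IC50 derived from spheroid confluence imaged on day 8, scaled between DMSO (0%) and a cytotoxic low control such as 1 μM staurosporin, fitted with variable slope, bounds fixed at 0 and 100%. Seeding 200 cells/well (300 for KO-52), ultra-low attachment plates, 0.3% DMSO, 37° C.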

MOLM14 cells = assay: Proliferation assay (spheroid confluence, 8 days), MOLM14; settings: read-out: spheroid assay_MOLM14 IC50
Procedure, shortened: as §1

OCI-AML3 cells = assay: Proliferation assay (spheroid confluence, 8 days), OCI-AML3; settings: Homo sapiens, OCI-AML-3, OCI-AML3; read-out: spheroid assay_OCI-AML3 IC50
Procedure, shortened: as §1

| SMILES | IC50 (MEIS1 mRNA expression; Homo sapiens, MOLM-14, 48 h) [µM] | IC50 (MOLM14 cells; Homo sapiens, MOLM-14, MOLM14) [µM] | IC50 (OCI-AML3 cells) [µM] | IC50 (MOLM14 cells; MOLM14) [µM] | IC50 (MEIS1 mRNA expression) [µM] | IC50 (KO-52 cells; Homo sapiens) [µM] | IC50 (KO-52 cells) [µM] |
| --- | --- | --- | --- | --- | --- | --- | --- |
| Cc1cncc2c1c(C[C@H]1CCN(C(C)C3CCOCC3)C1)cn2-c1ccc(F)cc1C(=O)N(C)C(C)C (mixture of isomers) [Compound 49] | 0.017 | 0.003 | – | – | – | 3 | – |
| Cc1cncc2c1c(C[C@@H]1CCN(CC3CCOCC3)C1)cn2-c1ccc(F)cc1C(=O)N(C)C(C)C (single isomer, unassigned) [Compound 42] | 0.045 | 0.031 | – | – | – | 2.8 | – |
| Cc1cncc2c1c(C[C@H]1CCN(CC3CCOCC3)C1)cn2-c1ccc(F)cc1C(=O)N(C)C(C)C (single isomer, unassigned) [Compound 43] | 0.024 | 0.014 | 0.023 | – | – | 3.3 | – |
| Cc1cncc2c1c(C[C@@H]1CCN(CC(C)C)C1)cn2-c1ccc(F)cc1C(=O)N(C)C(C)C (single isomer, unassigned) [Compound 44] | 0.043 | 0.071 | – | – | – | 4.7 | – |
| Cc1cncc2c1c(C[C@H]1CCN(CC(C)C)C1)cn2-c1ccc(F)cc1C(=O)N(C)C(C)C (single isomer, unassigned) [Compound 45] | 0.056 | 0.053 | – | – | – | 6.2 | – |
| CC(=O)N1CCC(CN2CC[C@@H](Cc3cn(-c4ccc(F)cc4C(=O)N(C)C(C)C)c4cncc(C)c34)C2)CC1 (single isomer, unassigned) [Compound 50] | 0.089 | 0.039 | – | – | – | 2.3 | – |
| COCC(=O)N1CCC(CN2CCC(Cc3cn(-c4ccc(F)cc4C(=O)N(C)C(C)C)c4cncc(C)c34)C2)CC1 (single isomer, unassigned) [Compound 59] | 0.009 | 0.011 | 0.012 | – | – | 2.1 | – |
| Cc1cncc2c1c(CC1CCN(CC3CCN(C(=O)CC#N)CC3)C1)cn2-c1ccc(F)cc1C(=O)N(C)C(C)C (single isomer, unassigned) [Compound 60] | 0.007 | 0.013 | 0.013 | – | – | 2.7 | – |
| Cc1cncc2c1c(C[C@H]1CCN(C[C@H]3CC[C@H](NS(C)(=O)=O)CC3)C1)cn2-c1ccc(F)cc1C(=O)N(C)C(C)C (single isomer, unassigned) [Compound 69] | 0.017 | 0.005 | 0.021 | – | – | 11 | – |
| CNC(=O)[C@H]1CC[C@H](CN2CCC(Cc3cn(-c4ccc(F)cc4C(=O)N(C)C(C)C)c4cncc(C)c34)C2)CC1 (single isomer, unassigned) [Compound 70] | 0.048 | – | 0.068 | 0.04 | – | 8.5 | – |
| CNC(=O)[C@H]1CC[C@H](CN2CCC(Cc3cn(-c4ccc(F)cc4C(=O)N(C)C(C)C)c4cncc(C)c34)C2)CC1 (single isomer, unassigned) [Compound 71] | – | – | – | 0.083 | 0.048 | – | > 15 |
| COCCN(C)CCCC(C(C)C)N1CC[C@@H](Cc2cn(-c3ccc(F)cc3C(=O)N(C)C(C)C)c3cncc(C)c23)C1 (stereo partly shown) [Compound 1] | 0.004 | 0.002 | – | – | – | 7.5 | – |
| CC(C)C([C@H]1C[C@@H](N(C)C)C1)N1CC(Cc2cn(-c3ccc(F)cc3C(=O)N(C)C(C)C)c3cncc(Cl)c23)C1 (stereo partly shown) [Compound 41] | 0.015 | 0.014 | – | – | – | 1.4 | – |
| CC(=O)N1CCC(CN2CCC(Cc3cn(-c4ccc(F)cc4C(=O)N(C)C(C)C)c4cncc(C)c34)CC2)CC1 [Compound 58] | 0.183 | 0.176 | – | – | – | 10.4 | – |
| Cc1cncc2c1c(CC1CN(CC3CCOCC3)C1)cn2-c1ccc(F)cc1C(=O)N(C)C(C)C [Compound 61] | 0.023 | 0.01 | – | – | – | 7.9 | – |
| CC(=O)N1CCC(CN2CC(Cc3cn(-c4ccc(F)cc4C(=O)N(C)C(C)C)c4cncc(C)c34)C2)CC1 [Compound 63] | 0.083 | 0.053 | 0.121 | – | – | 5.9 | – |
| COCC(=O)N1CCC(CN2CC(Cc3cn(-c4ccc(F)cc4C(=O)N(C)C(C)C)c4cncc(C)c34)C2)CC1 [Compound 66] | 0.046 | 0.018 | – | – | – | 7.7 | – |
| Cc1cncc2c1c(CC1CN(CC3CCN(C(=O)CC#N)CC3)C1)cn2-c1ccc(F)cc1C(=O)N(C)C(C)C [Compound 67] | ~0.068 | 0.048 | – | – | – | 12 | – |
| Cc1cncc2c1c(C[C@@H]1CCN(CC3CCOCC3)C1)cn2-c1ccc(F)cc1C(=O)N(CCO)C(C)C [Compound 357] | 0.015 | 0.008 | – | – | – | 3 | – |

Continued, in another order:

| IC50 (MEIS1 mRNA expression; Homo sapiens, MOLM-14, 48 h) [µM] | IC50 (MOLM14 cells; Homo sapiens, MOLM-14, MOLM14) [µM] | IC50 (OCI-AML3 cells) [µM] | IC50 (MOLM14 cells; MOLM14) [µM] | IC50 (MEIS1 mRNA expression) [µM] | SMILES | IC50 (KO-52 cells; Homo sapiens) [µM] | IC50 (KO-52 cells) [µM] |
| --- | --- | --- | --- | --- | --- | --- | --- |
| 0.006 | < 0.0018 | – | – | – | CCN(C(=O)c1cc(F)ccc1-n1cc(CC2CN(C(C(C)C)[C@H]3C[C@@H](N4C[C@H]5CN(C(C)=O)C[C@@H]5C4)C3)C2)c2c(C)cncc21)C(C)C (mixture of isomers) [Compound 38a] | 0.8 | – |
| 0.022 | 0.005 | – | – | – | CC(=O)N1CCN([C@H]2C[C@@H]([C@@H](C(C)C)N3CC(Cc4cn(-c5ccc(F)cc5C(=O)N(C)C(C)C)c5cncc(C)c45)C3)C2)CC1 (single isomer, unassigned) [Compound 32a] | 5.5 | – |
| 0.005 | 0.002 | – | – | – | CC(=O)N1C[C@@H]2CN([C@H]3C[C@@H]([C@@H](C(C)C)N4CC(Cc5cn(-c6ccc(F)cc6C(=O)N(C)C(C)C)c6cncc(Cl)c56)C4)C3)C[C@H]2C1 (single isomer, unassigned) [Compound 39a] | > 15 | – |
| 0.009 | 0.003 | 0.007 | – | – | Cc1cncc2c1c(C[C@H]1CCN([C@@H](C)C3CCOCC3)C1)cn2-c1ccc(F)cc1C(=O)N(C)C(C)C (single isomer, unassigned) [Compound 49b] | 4.1 | – |
| 0.011 | 0.008 | 0.011 | – | – | Cc1cncc2c1c(C[C@@H]1CCN(CC3CCOCC3)C1)cn2-c1ccc(F)cc1C(=O)N(C[C@H](C)O)C(C)C (single isomer, unassigned) [Compound 365b] | – | – |
| 0.011 | 0.01 | – | – | – | Cc1cncc2c1c(CC1CN([C@@H](C(C)C)[C@H]3C[C@@H](N4CCC(S(C)(=O)=O)CC4)C3)C1)cn2-c1ccc(F)cc1C(=O)N(C)C(C)C [Compound 33a] | 3 | – |
| 0.027 | 0.008 | – | – | – | CCN(C(=O)c1cc(F)ccc1-n1cc(CC2CN(C(C(C)C)[C@H]3C[C@@H](N4CCN(S(C)(=O)=O)CC4)C3)C2)c2c(C)cncc21)C(C)C (stereo partly shown) [Compound 37a] | 0.8 | – |
